pKi: −log10 of the molar value.
target: GST-tagged-Wee1 kinase (Homo sapiens, UniProt P30291); assay: Wee1 time-resolved fluorescence equilibrium binding assay (displacement of Oregon Green-labeled ATP-competitive kinase probe)
Description: Wee1 kinase was assayed using a time-resolved fluorescence equilibrium binding assay monitoring displacement of a rapidly reversible Oregon Green-labeled ATP-competitive kinase probe (N-(2-(2-(2-(4-(4-(5-chloro-4-(2-(1-hydroxycyclobutyl)thiazol-5-yl)-1H-pyrrolo[2,3-b]pyridin-2-yl)phenyl)piperazin-1-yl)ethoxy)ethoxy)ethyl)-2′,7′-difluoro-3′,6′-dihydroxy-3-oxo-3H-spiro[isobenzofuran-1,9′-xanthene]-5-carboxamide) by competitive Wee1 inhibitors.

Chain of GST-tagged-Wee1 kinase (P30291 whole entry): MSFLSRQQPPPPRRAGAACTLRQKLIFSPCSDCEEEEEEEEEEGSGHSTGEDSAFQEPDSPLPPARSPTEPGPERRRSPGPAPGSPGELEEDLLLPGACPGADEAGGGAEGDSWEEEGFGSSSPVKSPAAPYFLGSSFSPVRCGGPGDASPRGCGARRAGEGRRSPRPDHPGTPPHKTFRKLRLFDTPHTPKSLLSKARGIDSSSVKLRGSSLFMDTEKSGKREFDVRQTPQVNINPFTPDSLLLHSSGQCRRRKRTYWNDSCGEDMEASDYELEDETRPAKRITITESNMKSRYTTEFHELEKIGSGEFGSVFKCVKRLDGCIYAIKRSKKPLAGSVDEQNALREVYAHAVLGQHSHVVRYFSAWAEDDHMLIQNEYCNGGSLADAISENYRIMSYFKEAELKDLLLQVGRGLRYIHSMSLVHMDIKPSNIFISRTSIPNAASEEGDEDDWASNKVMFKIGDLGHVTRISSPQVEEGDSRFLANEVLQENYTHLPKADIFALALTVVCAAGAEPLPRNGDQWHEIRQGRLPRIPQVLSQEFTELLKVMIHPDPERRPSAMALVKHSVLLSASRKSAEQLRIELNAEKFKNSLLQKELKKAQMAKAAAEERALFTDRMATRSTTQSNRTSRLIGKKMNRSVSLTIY

Row | SMILES | pKi
1 | C=CCn1nc(-c2ccco2)c2nc(Nc3ccc(N4CCCC4=O)cc3)ncc2c1=O [Example 269, 8-(furan-2-yl)-2-{[4-(2-oxopyrrolidin-1-yl)phenyl]amino}-6-(prop-2-en-1-yl)pyrimido[4,5-d]pyridazin-5(6H)-one] | 7.24
2 | CN1CCN(c2ccc(Nc3ncc4c(=O)n(-c5c(Cl)cccc5Cl)nc(-c5ccccc5)c4n3)cc2)CC1 [Example 46, 6-(2,6-dichlorophenyl)-2-{[4-(4-methylpiperazin-1-yl)phenyl]amino}-8-phenylpyrimido[4,5-d]pyridazin-5(6H)-one] | 9.52
3 | O=c1c2cnc(Nc3ccc(N4CCNCC4)cc3)nc2c(-c2cncs2)nn1-c1c(Cl)cccc1Cl [Example 319, 6-(2,6-dichlorophenyl)-2-{[4-(piperazin-1-yl)phenyl]amino}-8-(1,3-thiazol-5-yl)pyrimido[4,5-d]pyridazin-5(6H)-one] | 9.41
4 | CN1CCc2ccc(Nc3ncc4c(=O)n(-c5ccccc5Cl)nc(-c5ccccc5)c4n3)cc2C1 [Example 245, 6-(2-chlorophenyl)-2-[(2-methyl-1,2,3,4-tetrahydroisoquinolin-7-yl)amino]-8-phenylpyrimido[4,5-d]pyridazin-5(6H)-one] | 9.15
5 | Cc1nn(-c2c(Cl)cccc2Cl)c(=O)c2cnc(Nc3cccc(N4CCN(C5CCOCC5)CC4)c3)nc12 [Example 509, 6-(2,6-dichlorophenyl)-8-methyl-2-({3-[4-(tetrahydro-2H-pyran-4-yl)piperazin-1-yl]phenyl}amino)pyrimido[4,5-d]pyridazin-5(6H)-one] | 8.92
6 | Cc1nn(-c2c(F)cccc2Cl)c(=O)c2cnc(Nc3ccc4c(c3)CNCC43CC3)nc12 [Example 308] | 9.00
7 | CN1CCN(c2ccc(Nc3ncc4c(=O)n(-c5c(Cl)cccc5Cl)nc(-c5ccn(CCN)n5)c4n3)cc2)CC1 [Example 235, 8-[1-(2-aminoethyl)-1H-pyrazol-3-yl]-6-(2,6-dichlorophenyl)-2-{[4-(4-methylpiperazin-1-yl)phenyl]amino}pyrimido[4,5-d]pyridazin-5(6H)-one] | 10.00
8 | CCCc1nn(-c2ccccc2Cl)c(=O)c2cnc(Nc3ccc(N4CCN(C)CC4)cc3)nc12 [Example 25, 6-(2-chlorophenyl)-2-{[4-(4-methylpiperazin-1-yl)phenyl]amino}-8-propylpyrimido[4,5-d]pyridazin-5(6H)-one] | 9.00
9 | Cc1ccccc1-n1nc(-c2cccs2)c2nc(Nc3ccc(N4CCN(C(C)C)CC4)cc3)ncc2c1=O [Example 118, 2-{[4-(4-isopropylpiperazin-1-yl)phenyl]amino}-6-(2-methylphenyl)-8-(2-thienyl)pyrimido[4,5-d]pyridazin-5(6H)-one] | 9.00
10 | C=CCn1nc(-c2ccccc2)c2nc(Nc3ccc(N4CCCN(C(C)C)CC4)c(C)c3)ncc2c1=O [Example 115, 6-allyl-2-{[4-(4-isopropyl-1,4-diazepan-1-yl)-3-methylphenyl]amino}-8-phenylpyrimido[4,5-d]pyridazin-5(6H)-one] | 8.40
11 | O=c1c2cnc(Nc3ccc4c(c3)CNCC43CC3)nc2c(-c2ccccn2)nn1-c1c(Cl)cccc1Cl [Example 221, 6-(2,6-dichlorophenyl)-2-(2′,3′-dihydro-1′H-spiro[cyclopropane-1,4′-isoquinolin]-7′-ylamino)-8-(pyridin-2-yl)pyrimido[4,5-d]pyridazin-5(6H)-one] | 9.70
12 | Cc1ccccc1-n1nc(-c2cccs2)c2nc(Nc3ccc4c(c3)CN(C)CC43CC3)ncc2c1=O [Example 130, 2-[(2′-methyl-2′,3′-dihydro-1′H-spiro[cyclopropane-1,4′-isoquinolin]-7′-yl)amino]-6-(2-methylphenyl)-8-(2-thienyl)pyrimido[4,5-d]pyridazin-5(6H)-one] | 9.40
13 | Cc1nn(-c2ncccc2Cl)c(=O)c2cnc(Nc3ccc(N4CCNCC4)cc3)nc12 [Example 399, 6-(3-chloropyridin-2-yl)-8-methyl-2-{[4-(piperazin-1-yl)phenyl]amino}pyrimido[4,5-d]pyridazin-5(6H)-one] | 7.74
14 | CCC(O)(CC)c1cccc(-c2nn(-c3c(Cl)cccc3Cl)c(=O)c3cnc(Nc4ccc(N5CCN(C)CC5)cc4)nc23)n1 [Example 176, 6-(2,6-dichlorophenyl)-8-[6-(3-hydroxypentan-3-yl)pyridin-2-yl]-2-{[4-(4-methylpiperazin-1-yl)phenyl]amino}pyrimido[4,5-d]pyridazin-5(6H)-one] | 7.44
15 | Cc1cccc(-c2nn(-c3ccccc3)c(=O)c3cnc(Nc4ccc(N5CCN(C)CC5)cc4)nc23)c1 [Example 50, 8-(3-methylphenyl)-2-{[4-(4-methylpiperazin-1-yl)phenyl]amino}-6-phenylpyrimido[4,5-d]pyridazin-5(6H)-one] | 8.30
16 | CN1CCN(c2ccc(Nc3ncc4c(=O)n(-c5c(Cl)cccc5Cl)nc(-c5nccn5C)c4n3)cc2)CC1 [Example 354, 6-(2,6-dichlorophenyl)-8-(1-methyl-1H-imidazol-2-yl)-2-{[4-(4-methylpiperazin-1-yl)phenyl]amino}pyrimido[4,5-d]pyridazin-5(6H)-one] | 6.13
17 | Cc1nn(-c2ccccc2Cl)c(=O)c2cnc(Nc3ccc4c(c3)CN(C)CC4(C)C)nc12 [Example 483, 6-(2-chlorophenyl)-8-methyl-2-[(2,4,4-trimethyl-1,2,3,4-tetrahydroisoquinolin-7-yl)amino]pyrimido[4,5-d]pyridazin-5(6H)-one] | 9.26
18 | CN1Cc2cc(Nc3ncc4c(=O)n(-c5c(Cl)cccc5Cl)nc(C(F)F)c4n3)ccc2C2(CC2)C1 [Example 411, 6-(2,6-dichlorophenyl)-8-(difluoromethyl)-2-[(2′-methyl-2′,3′-dihydro-1′H-spiro[cyclopropane-1,4′-isoquinolin]-7′-yl)amino]pyrimido[4,5-d]pyridazin-5(6H)-one] | 9.00
19 | CN1CCN(c2ccc(Nc3ncc4c(=O)n(-c5ccccc5C(F)(F)F)nc(-c5ccc(Cl)cc5Cl)c4n3)cc2)CC1 [Example 39, 8-(2,4-dichlorophenyl)-2-{[4-(4-methylpiperazin-1-yl)phenyl]amino}-6-[2-(trifluoromethyl)phenyl]pyrimido[4,5-d]pyridazin-5(6H)-one] | 6.60
20 | CN1CCN(c2ccc(Nc3ncc4c(=O)n(-c5c(Cl)cccc5Cl)nc(-c5ccnc(C(=O)N6CCCC6)c5)c4n3)cc2)CC1 [Example 225, 6-(2,6-dichlorophenyl)-2-{[4-(4-methylpiperazin-1-yl)phenyl]amino}-8-[2-(pyrrolidin-1-ylcarbonyl)pyridin-4-yl]pyrimido[4,5-d]pyridazin-5(6H)-one] | 9.52
21 | CC(=O)N1CCN(c2ccc(Nc3ncc4c(=O)n(-c5c(Cl)cccc5Cl)nc(-c5ccncc5)c4n3)cc2)CC1 [Example 378, 2-{[4-(4-acetylpiperazin-1-yl)phenyl]amino}-6-(2,6-dichlorophenyl)-8-(pyridin-4-yl)pyrimido[4,5-d]pyridazin-5(6H)-one] | 9.31
22 | Cn1cnc(-c2nn(-c3c(Cl)cncc3Cl)c(=O)c3cnc(Nc4ccc5c(c4)CNCC54CC4)nc23)c1 [Example 372, 6-(3,5-dichloropyridin-4-yl)-2-(2′,3′-dihydro-1′H-spiro[cyclopropane-1,4′-isoquinolin]-7′-ylamino)-8-(1-methyl-1H-imidazol-4-yl)pyrimido[4,5-d]pyridazin-5(6H)-one] | 8.43

Reference: patent US8796289B2 (AbbVie Inc., priority 2011, dated 2014)
